Measured values: ChEMBL document CHEMBL1671673, “In vitro activity of colistin (polymyxin E) against 3,480 isolates of gram-negative bacilli obtained from patients in Canadian hospitals in the CANWARD study, 2007-2008” (Antimicrob Agents Chemother, 2009)

Tests used:
Format in all cases: functional, organism-based
Parameters in all cases: scale not given: the % may be the effect or the level left
Pseudomonas aeruginosa [1] = assay: Antibacterial activity against Gentamicin-resistant Pseudomonas aeruginosa assessed as susceptible isolates at minimum inhibitory concentration of 8 ug/ml by CLSI broth microdilution method
Pseudomonas aeruginosa [2] = assay: Antibacterial activity against Gentamicin-resistant Pseudomonas aeruginosa assessed as susceptible isolates at minimum inhibitory concentration of 16 ug/ml by CLSI broth microdilution method
Pseudomonas aeruginosa [3] = assay: Antibacterial activity against Gentamicin-resistant Pseudomonas aeruginosa assessed as susceptible isolates at minimum inhibitory concentration of >16 ug/ml by CLSI broth microdilution method
Pseudomonas aeruginosa [4] = assay: Antibacterial activity against Levofloxacin-resistant Pseudomonas aeruginosa assessed as susceptible isolates at minimum inhibitory concentration of 16 ug/ml by CLSI broth microdilution method
Pseudomonas aeruginosa [5] = assay: Antibacterial activity against Levofloxacin-resistant Pseudomonas aeruginosa assessed as susceptible isolates at minimum inhibitory concentration of >16 ug/ml by CLSI broth microdilution method
Pseudomonas aeruginosa [6] = assay: Antibacterial activity against Pseudomonas aeruginosa assessed as susceptible isolates at minimum inhibitory concentration of <=2 ug/ml by CLSI broth microdilution method
Pseudomonas aeruginosa [7] = assay: Antibacterial activity against tazobactam-resistant Pseudomonas aeruginosa assessed as susceptible isolates at minimum inhibitory concentration of 0.5 ug/ml by CLSI broth microdilution method
Serratia marcescens [8] = assay: Antibacterial activity against Serratia marcescens assessed as susceptible isolates at minimum inhibitory concentration of 4 ug/ml by CLSI broth microdilution method
Serratia marcescens [9] = assay: Antibacterial activity against Serratia marcescens assessed as susceptible isolates at minimum inhibitory concentration of 0.12 ug/ml by CLSI broth microdilution method
Serratia marcescens [10] = assay: Antibacterial activity against Serratia marcescens assessed as susceptible isolates at minimum inhibitory concentration of <=0.06 ug/ml by CLSI broth microdilution method
Proteus mirabilis [11] = assay: Antibacterial activity against Proteus mirabilis assessed as susceptible isolates at minimum inhibitory concentration of 0.25 ug/ml by CLSI broth microdilution method
Proteus mirabilis [12] = assay: Antibacterial activity against Proteus mirabilis assessed as susceptible isolates at minimum inhibitory concentration of 0.12 ug/ml by CLSI broth microdilution method
Enterobacter cloacae [13] = assay: Antibacterial activity against Enterobacter cloacae assessed as susceptible isolates at minimum inhibitory concentration of 16 ug/ml by CLSI broth microdilution method
Enterobacter cloacae [14] = assay: Antibacterial activity against Enterobacter cloacae assessed as susceptible isolates at minimum inhibitory concentration of 0.5 ug/ml by CLSI broth microdilution method
Klebsiella pneumoniae = assay: Antibacterial activity against ESBL-producing Klebsiella pneumoniae assessed as susceptible isolates at minimum inhibitory concentration of 0.12 ug/ml by CLSI broth microdilution method
Pseudomonas aeruginosa [15] = assay: Antibacterial activity against Pseudomonas aeruginosa assessed as susceptible isolates at minimum inhibitory concentration of 8 ug/ml by CLSI broth microdilution method
Pseudomonas aeruginosa [16] = assay: Antibacterial activity against Pseudomonas aeruginosa assessed as susceptible isolates at minimum inhibitory concentration of 2 ug/ml by CLSI broth microdilution method
Pseudomonas aeruginosa [17] = assay: Antibacterial activity against Pseudomonas aeruginosa assessed as susceptible isolates at minimum inhibitory concentration of <=0.06 ug/ml by CLSI broth microdilution method
Escherichia coli = assay: Antibacterial activity against ESBL-producing Escherichia coli assessed as susceptible isolates at minimum inhibitory concentration of 1 ug/ml by CLSI broth microdilution method
[18] = tested on: Stenotrophomonas maltophilia; assay: Antibacterial activity against Stenotrophomonas maltophilia assessed as susceptible isolates at minimum inhibitory concentration of 2 ug/ml by CLSI broth microdilution method
[19] = tested on: Stenotrophomonas maltophilia; assay: Antibacterial activity against Stenotrophomonas maltophilia assessed as susceptible isolates at minimum inhibitory concentration of 8 ug/ml by CLSI broth microdilution method
[20] = tested on: Stenotrophomonas maltophilia; assay: Antibacterial activity against Stenotrophomonas maltophilia assessed as susceptible isolates at minimum inhibitory concentration of 16 ug/ml by CLSI broth microdilution method
[21] = tested on: Stenotrophomonas maltophilia; assay: Antibacterial activity against Stenotrophomonas maltophilia assessed as susceptible isolates at minimum inhibitory concentration of >16 ug/ml by CLSI broth microdilution method
Klebsiella aerogenes [22] = assay: Antibacterial activity against Enterobacter aerogenes assessed as susceptible isolates at minimum inhibitory concentration of 0.12 ug/ml by CLSI broth microdilution method
Klebsiella aerogenes [23] = assay: Antibacterial activity against Enterobacter aerogenes assessed as susceptible isolates at minimum inhibitory concentration of 0.25 ug/ml by CLSI broth microdilution method
Acinetobacter baumannii [24] = assay: Antibacterial activity against Acinetobacter baumannii assessed as susceptible isolates at minimum inhibitory concentration of 8 ug/ml by CLSI broth microdilution method
Acinetobacter baumannii [25] = assay: Antibacterial activity against Acinetobacter baumannii assessed as susceptible isolates at minimum inhibitory concentration of >16 ug/ml by CLSI broth microdilution method
Pseudomonas aeruginosa [26] = assay: Antibacterial activity against Amikacin-resistant Pseudomonas aeruginosa assessed as susceptible isolates at minimum inhibitory concentration of 0.5 ug/ml by CLSI broth microdilution method
Pseudomonas aeruginosa [27] = assay: Antibacterial activity against Amikacin-resistant Pseudomonas aeruginosa assessed as susceptible isolates at minimum inhibitory concentration of 2 ug/ml by CLSI broth microdilution method
Pseudomonas aeruginosa [28] = assay: Antibacterial activity against Amikacin-resistant Pseudomonas aeruginosa assessed as susceptible isolates at minimum inhibitory concentration of 8 ug/ml by CLSI broth microdilution method
Pseudomonas aeruginosa [29] = assay: Antibacterial activity against Amikacin-resistant Pseudomonas aeruginosa assessed as susceptible isolates at minimum inhibitory concentration of 16 ug/ml by CLSI broth microdilution method
Pseudomonas aeruginosa [30] = assay: Antibacterial activity against Cefepime-resistant Pseudomonas aeruginosa assessed as susceptible isolates at minimum inhibitory concentration of 1 ug/ml by CLSI broth microdilution method
Pseudomonas aeruginosa [31] = assay: Antibacterial activity against Cefepime-resistant Pseudomonas aeruginosa assessed as susceptible isolates at minimum inhibitory concentration of 4 ug/ml by CLSI broth microdilution method
Pseudomonas aeruginosa [32] = assay: Antibacterial activity against Gentamicin-resistant Pseudomonas aeruginosa assessed as susceptible isolates at minimum inhibitory concentration of 2 ug/ml by CLSI broth microdilution method
Pseudomonas aeruginosa [33] = assay: Antibacterial activity against Gentamicin-resistant Pseudomonas aeruginosa assessed as susceptible isolates at minimum inhibitory concentration of 4 ug/ml by CLSI broth microdilution method
Klebsiella oxytoca [34] = assay: Antibacterial activity against Klebsiella oxytoca assessed as susceptible isolates at minimum inhibitory concentration of 4 ug/ml by CLSI broth microdilution method
Klebsiella oxytoca [35] = assay: Antibacterial activity against Klebsiella oxytoca assessed as susceptible isolates at minimum inhibitory concentration of 0.25 ug/ml by CLSI broth microdilution method
Klebsiella oxytoca [36] = assay: Antibacterial activity against Klebsiella oxytoca assessed as susceptible isolates at minimum inhibitory concentration of 0.12 ug/ml by CLSI broth microdilution method
Klebsiella oxytoca [37] = assay: Antibacterial activity against Klebsiella oxytoca assessed as susceptible isolates at minimum inhibitory concentration of <=0.06 ug/ml by CLSI broth microdilution method
Serratia marcescens [38] = assay: Antibacterial activity against Serratia marcescens assessed as susceptible isolates at minimum inhibitory concentration of 16 ug/ml by CLSI broth microdilution method

Sequence: COLISTIN
- Activity (Pseudomonas aeruginosa [1]): 99%
- Activity (Pseudomonas aeruginosa [2]): 99%
- Activity (Pseudomonas aeruginosa [3]): 100%
- Activity (Pseudomonas aeruginosa [4]): 98.2%
- Activity (Pseudomonas aeruginosa [5]): 100%
- Activity (Pseudomonas aeruginosa [6]): 91.6%
- Activity (Pseudomonas aeruginosa [7]): 1.8%
- Activity (Serratia marcescens [8]): 1.9%
- Activity (Serratia marcescens [9]): 0%
- Activity (Serratia marcescens [10]): 0%
- Activity (Proteus mirabilis [11]): 0%
- Activity (Proteus mirabilis [12]): 0%
- Activity (Enterobacter cloacae [13]): 88.2%
- Activity (Enterobacter cloacae [14]): 69.9%
- Activity (Klebsiella pneumoniae): 0.8%
- Activity (Pseudomonas aeruginosa [15]): 99.1%
- Activity (Pseudomonas aeruginosa [16]): 91.6%
- Activity (Pseudomonas aeruginosa [17]): 0%
- Activity (Escherichia coli): 97.3%
- Activity [18]: 15.7%
- Activity [19]: 50.6%
- Activity [20]: 56.6%
- Activity [21]: 100%
- Activity (Klebsiella aerogenes [22]): 0%
- Activity (Klebsiella aerogenes [23]): 18.9%
- Activity (Acinetobacter baumannii [24]): 93.5%
- Activity (Acinetobacter baumannii [25]): 100%
- Activity (Pseudomonas aeruginosa [26]): 5.3%
- Activity (Pseudomonas aeruginosa [27]): 97.4%
- Activity (Pseudomonas aeruginosa [28]): 97.4%
- Activity (Pseudomonas aeruginosa [29]): 97.4%
- Activity (Pseudomonas aeruginosa [30]): 39.7%
- Activity (Pseudomonas aeruginosa [31]): 100%
- Activity (Pseudomonas aeruginosa [32]): 99%
- Activity (Pseudomonas aeruginosa [33]): 99%
- Activity (Klebsiella oxytoca [34]): 97.2%
- Activity (Klebsiella oxytoca [35]): 18.5%
- Activity (Klebsiella oxytoca [36]): 0%
- Activity (Klebsiella oxytoca [37]): 0%
- Activity (Serratia marcescens [38]): 1.9%
